These results are taken from patent publication US4010161A, “Piperazinoethyl-N-(2,3-dimethyl-5-oxo-1-phenyl-3Δ-pyrazolin- 4-yl)carbamates” (Synthelabo, priority 1973, dated 1977).

Counter-ions that a name gives are not always drawn.

The test system of series [1] is oedema induced by carragenine in SJ rats. As to the kind of experiment: Oedema induced by carragenine (anti-inflammatory effect). It counts as in vivo. The conditions noted are these: Rattus norvegicus, po, per os, AD40 = 40% active dose, read-out: Inflammation induced by carragenine AD40. From the text:
The test of oedema induced by carragenine in SJ rats, in accordance with the technique of Winter and colleagues, (Proc. Soc. exp. Biol. Med., 1962, III, 544) was used. The effects of the compounds of the invention are markedly lower than that of the reference product.

Series [2] is described as follows: Acute toxicity, 50% lethal dose in mice. The conditions noted are these: mouse, in vivo, po; mice (CD1 strain, both sexes), per os; 50% lethal dose calculated graphically. How it is done:
The experiments were carried out on mice of the CDl strain, of both sexes, and the 50% lethal doses were calculated graphically.

Series [3] deals with pain induced, in CDl mice, by the intraperitoneal injection of acetic acid. As to the kind of experiment: Koster test: pain induced by intraperitoneal injection of acetic acid. The conditions noted are these: Mus musculus, po, per os, AD50 = 50% active dose. The series is classed as in vivo. From the text:
(§1) This effect was investigated in accordance with three conventional experimental procedures.
a. Effect against pain induced, in CDl mice, by the intraperitoneal injection of acetic acid, using the method described by Koster and colleagues (Fed. Proc., 1959, 18, 42) and modified by Peterfalvi, Branceni and colleagues, (Med. Pharmacol. exp., 1966, 15, 254).

The next series concerns CD1 mice, tail-pinching. As to the kind of experiment: Haffner tail-pinching test. It counts as in vivo. The conditions noted are these: Mus musculus, po, per os, AD50 = 50% active dose.
Excerpt: as §1
c. Tail-pinching test on CD1 mice, using the method of Haffner (Deutsch. med. Wachr., 1959, 55, 731).

Another series in a line: Solubility in water. The series is classed as physicochemical.

By LD50 is commonly meant the dose at which mortality reaches 50%. The ED50 is the dose that gives a 50% effect, or the effect in half of the subjects. Lower therefore signals an effect at a small dose. For `Cc1c(NC(=O)OCCN2CCN(c3ccccc3)CC2)c(=O)n(-c2ccccc2)n1C` [SLB-197, 2-(4-Phenyl-piperazino)-ethyl N-(2,3-dimethyl-5-oxo-1-phenyl-3Δ-pyrazolin-4-yl)-carbamate], the ED40 in series [1] is more than 100 mg/kg. Moreover, the LD50 in series [2] was 400 mg/kg. The same compound came in with an ED50 in series [3] of 30 mg/kg.
As to `Cc1c(NC(=O)OCCN2CCN(c3cccc(C(F)(F)F)c3)CC2)c(=O)n(-c2ccccc2)n1C` [SLB-186, 2-(4-m-Trifluoromethylphenyl-piperazino)-ethyl N-(2,3-dimethyl-5-oxo-1-phenyl-3Δ-pyrazolin-4-yl)-carbamate hydrochloride], in series [1], the ED40 was 100 mg/kg. The LD50 in series [2] is 2000 mg/kg. Further, the ED50 was found to be 8 mg/kg in series [3] and 10 mg/kg in the series on CD1 mice, tail-pinching.
`Cc1c(NC(=O)OCCN2CCN(c3cccc(SC(F)(F)F)c3)CC2)c(=O)n(-c2ccccc2)n1C` [SLB-208, 2-(4-m-Trifluoromethylthiophenyl-piperazino)-ethyl N-(2,3-dimethyl-5-oxo-1-phenyl-3Δ-pyrazolin-4-yl)-carbamate]: the ED40 in series [1] was 76 mg/kg. For the same compound, the LD50 in series [2] was more than 1000 mg/kg. Also, the 50% effective dose (ED50) in series [3] worked out at 17 mg/kg.
In the case of `Cc1c(NC(=O)OCCN2CCN(c3cccc(Cl)c3)CC2)c(=O)n(-c2ccccc2)n1C` [2-(4-m-chlorophenyl-piperazino)-ethyl N-(2,3-dimethyl-5-oxo-1-phenyl-3Δ-pyrazolin-4-yl)-carbamate tartrate], the solubility in water result in the series “Solubility in water” is “very soluble in water”.
`Cc1c(NC(=O)OCCN(C)C)c(=O)n(-c2ccccc2)n1C` [SLB-215, 2-Dimethylamino-ethyl N-(2,3-dimethyl-5-oxo-1-phenyl-3Δ-pyrazolin-4-yl)-carbamate]: the ED40 in series [1] is more than 100 mg/kg. Besides, the LD50 in series [2] is more than 1000 mg/kg. The solubility in water result in “Solubility in water” is “very soluble in water”. The compound also came in with an ED50 in series [3] of 60 mg/kg.
As to `Cc1c(NC(=O)OCCN2CCN(c3cccc(Cl)c3)CC2)c(=O)n(-c2ccccc2)n1C` [SLB-207, 2-(4-m-Chlorophenyl-piperazino)-ethyl N-(2,3-dimethyl-5-oxo-1-phenyl-3Δ-pyrazolin-4-yl)-carbamate], in series [1], the ED40 was 100 mg/kg. Besides, in series [2], the LD50 is 990 mg/kg. Also, the ED50 turned out to be 8 mg/kg in series [3] and 10 mg/kg in the series on CD1 mice, tail-pinching.
As for `Cc1c(N(C)C)c(=O)n(-c2ccccc2)n1C` [Aminopyrine, reference compound], the ED40 in series [1] was 50 mg/kg. In addition, the ED50 in series [3] amounted to 40 mg/kg; in the series with CD1 mice, tail-pinching, 75 mg/kg.
As for `Cc1ccc(N2CCN(CCOC(=O)Nc3c(C)n(C)n(-c4ccccc4)c3=O)CC2)cc1` [SLB-209, 2-(4-p-Tolyl-piperazino)-ethyl N-(2,3-dimethyl-5-oxo-1-phenyl-3Δ-pyrazolin-4-yl)-carbamate], in series [1], the ED40 was more than 100 mg/kg. In addition, the LD50 in series [2] was 410 mg/kg. Further, the ED50 in series [3] was 25 mg/kg; in the series with CD1 mice, tail-pinching, 15 mg/kg.
